Experimental data as given in BindingDB's records for doi:10.7270/Q2222S6W (University of Pittsburgh, 2007).
Where a name gives a salt, the structure may show the parent alone.

molecular target: Genome polyprotein (West Nile virus, UniProt P06935); test: inhibitors of WNV NS2B-NS3 protease, dose response, biochemical, confirmation (AID 653)
Sequence (P06935 1371-1501 limits assumed): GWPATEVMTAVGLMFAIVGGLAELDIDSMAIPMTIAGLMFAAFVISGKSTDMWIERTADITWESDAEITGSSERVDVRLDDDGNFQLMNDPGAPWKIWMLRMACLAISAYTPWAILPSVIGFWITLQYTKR
Sequence (P06935 1502-2120 limits assumed): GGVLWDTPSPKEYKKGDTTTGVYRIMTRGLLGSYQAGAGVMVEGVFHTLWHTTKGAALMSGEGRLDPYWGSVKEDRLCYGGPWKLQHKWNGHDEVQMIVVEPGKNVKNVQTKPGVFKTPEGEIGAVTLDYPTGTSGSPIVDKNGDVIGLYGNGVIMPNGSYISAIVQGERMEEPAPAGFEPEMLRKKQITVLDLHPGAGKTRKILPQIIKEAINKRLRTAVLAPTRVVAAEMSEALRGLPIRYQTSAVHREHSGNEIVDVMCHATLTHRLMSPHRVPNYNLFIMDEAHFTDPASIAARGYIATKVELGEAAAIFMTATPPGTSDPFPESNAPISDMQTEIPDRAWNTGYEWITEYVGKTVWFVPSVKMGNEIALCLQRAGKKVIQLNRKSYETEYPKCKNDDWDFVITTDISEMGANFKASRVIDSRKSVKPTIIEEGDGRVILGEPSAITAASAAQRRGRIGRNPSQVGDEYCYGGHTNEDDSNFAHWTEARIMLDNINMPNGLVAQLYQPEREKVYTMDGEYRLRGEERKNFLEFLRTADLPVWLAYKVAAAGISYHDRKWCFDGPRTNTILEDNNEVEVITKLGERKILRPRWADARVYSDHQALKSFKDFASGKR

| Structure (SMILES) | IC50 |
| --- | --- |
| OC[C@H]1O[C@@H](n2cnc3c(NC4CCCC4)ncnc32)[C@H](O)[C@@H]1O | > 50 µM |
| COc1ccc(C2=Nn3c(nnc3-c3ccc(OC)cc3)SC2)cc1 | > 50 µM |
| Cc1ccc(S(=O)(=O)n2nc(OC(=O)c3cccs3)cc2N)cc1 | 2.41 µM |
| Nc1cc(OC(=O)c2ccco2)nn1S(=O)(=O)c1ccc(F)cc1 | 1.65 µM |
| N[C@@H](Cc1ccc(O)c(I)c1)C(=O)O | > 50 µM |
| CCCC(=O)Nc1ccc(NC(=O)C23CC4CC(CC(C4)C2)C3)cn1 | > 50 µM |
| COc1ccccc1-n1c(SCC(=O)N2CCOCC2)nc(O)c(Cc2ccccc2)c1=O | > 50 µM |
| CCOC(=O)C1=C[C@]2(CC)CCCN3CCc4c(n1c1ccccc41)[C@@H]32 | > 50 µM |
| O=C(O)c1cc(-c2ccc(F)cc2F)ccc1O | > 50 µM |
| CN1C(=O)N(CN2CCCCC2)C2C1N(C)C(=O)N2CN1CCCCC1 (configuration not stated) [1,6-dimethyl-3,4-bis(1-piperidinylmethyl)-3a,6a-dihydroimidazo[4,5-d]imidazole-2,5-dione] | > 50 µM |
| Cc1ccc(NC(=O)C2CCN(S(=O)(=O)c3cccc4nonc34)CC2)nc1 [1-(2,1,3-benzoxadiazol-4-ylsulfonyl)-N-(5-methyl-2-pyridinyl)-4-piperidinecarboxamide] | > 50 µM |
| O=C(c1cccs1)N1CCN(C(=O)c2ccco2)c2ccccc2C1 [1-(2-furoyl)-4-(thien-2-ylcarbonyl)-2,3,4,5-tetrahydro-1H-1,4-benzodiazepine] | > 50 µM |
| CCOC(=O)C1CCN(S(=O)(=O)c2ccc(C(=O)OC)cc2)CC1 [1-(4-Methoxycarbonyl-benzenesulfonyl)-piperidine-4-carboxylic acid ethyl ester] | > 50 µM |
| CCSc1nnc(NC(=O)NCC(F)(F)F)s1 [1-(5-ethylsulfanyl-1,3,4-thiadiazol-2-yl)-3-(2,2,2-trifluoroethyl)urea] | > 50 µM |
| Cc1cc(N2CCC(C(=O)NC3CCCCC3)CC2)nc(-c2ccccc2)n1 [1-(6-Methyl-2-phenyl-pyrimidin-4-yl)-piperidine-4-carboxylic acid cyclohexylamide] | > 50 µM |
| CCCCNC(=O)NS(=O)(=O)c1ccc(C)cc1 [1-Butyl-3-(p-methylphenylsulfonyl)urea] | > 50 µM |
| CC(C)c1nnc(NC(=O)c2c(O)n3c4c(cccc4c2=O)CCC3)s1 [1-Hydroxy-3-oxo-6,7-dihydro-3H,5H-pyrido[3,2,1-ij]quinoline-2-carboxylic acid (5-isopropyl-[1,3,4]thiadiazol-2-yl)-amide] | > 50 µM |
| COc1cccc(CNC(=O)C2CCN(S(=O)(=O)c3ccc4c(c3)CCC(=O)N4)CC2)c1 [1-[(2-keto-3,4-dihydro-1H-quinolin-6-yl)sulfonyl]-N-m-anisyl-isonipecotamide] | > 50 µM |
| CC(CC1(O)C(=O)N(Cc2ccccc2)c2ccccc21)N=O (configuration not stated) [1-benzyl-3-(2-hydroximinopropyl)-3-hydroxy-oxindole] | > 50 µM |

| Structure (SMILES) | IC50 |
| --- | --- |
| CC(C)n1c(-c2cccnc2)nc2cnccc21 [1-isopropyl-2-(3-pyridyl)imidazo[4,5-c]pyridine] | > 50 µM |
| Cn1cc(C(=O)NCN2CCCCC2)c2ccccc21 [1-methyl-N-(1-piperidinylmethyl)-3-indolecarboxamide;hydrochloride] | > 50 µM |
| OC(CNCCCN1CCCCC1)COc1ccccc1 (configuration not stated) [1-phenoxy-3-(3-piperidin-1-ylpropylamino)propan-2-ol;hydrochloride] | > 50 µM |
| CC1=C(C#N)C(=O)OC(C)(C)C1 [2,2,4-trimethyl-6-oxidanylidene-3H-pyran-5-carbonitrile] | > 50 µM |
| Cc1cnc(NC(=O)C(C)N2C(=O)C3CC=CCC3C2=O)s1 (configuration not stated) [2-(1,3-diketo-3a,4,7,7a-tetrahydroisoindol-2-yl)-N-(5-methylthiazol-2-yl)propionamide] | > 50 µM |
| O=C(OCCN1C(=O)c2ccccc2C1=O)c1cc(S(=O)(=O)N2CCOCC2)ccc1F [2-(1,3-dioxoisoindol-2-yl)ethyl 2-fluoro-5-morpholin-4-ylsulfonylbenzoate] | > 50 µM |
| COc1ccc(OC)c(C2C(C(N)=O)C(C)=Nc3nc(-c4cccc(Cl)c4)nn32)c1 (configuration not stated) [2-(3-chlorophenyl)-7-(2,5-dimethoxyphenyl)-5-methyl-1,7-dihydro-[1,2,4]triazolo[1,5-a]pyrimidine-6-carboxamide] | > 50 µM |
| CCc1cccc2c(C#N)cn(CC(=O)NCc3ccco3)c12 [2-(3-cyano-7-ethyl-1-indolyl)-N-(2-furanylmethyl)acetamide] | > 50 µM |
| Cc1cccn2c(=O)c(/C=N/Cc3ccco3)c(Nc3ccc(Cl)cc3)nc12 [2-(4-chloroanilino)-3-(2-furanylmethyliminomethyl)-9-methyl-4-pyrido[1,2-a]pyrimidinone] | > 50 µM |
| CCC(=O)N1CCc2cc(Br)cc(S(=O)(=O)CC(=O)OC)c21 [2-(5-bromo-1-propionyl-indolin-7-yl)sulfonylacetic acid methyl ester] | > 50 µM |
| COC(=O)c1c(NC(=O)C2CC2)sc2c1CCCC2 [2-(cyclopropanecarbonylamino)-4,5,6,7-tetrahydrobenzothiophene-3-carboxylic acid methyl ester] | > 50 µM |
| COc1cccc(NC(=O)CSc2nc3nnc(C)c-3c(N)n2-c2cccc(OC)c2)c1 [2-[4-amino-5-(3-methoxyphenyl)-3-methylpyrazolo[3,4-d]pyrimidin-6-yl]sulfanyl-N-(3-methoxyphenyl)acetamide] | > 50 µM |
| C=CCn1c(SCC(=O)OC)nc2sc3c(c2c1=O)CCN(C)C3 [2-[(3-allyl-4-keto-7-methyl-6,8-dihydro-5H-pyrido[2,3]thieno[2,4-b]pyrimidin-2-yl)thio]acetic acid methyl ester] | > 50 µM |
| CCOC(=O)CNC(=O)C(Cc1ccccc1)NS(=O)(=O)c1cccs1 (configuration not stated) [2-[[1-oxo-3-phenyl-2-(thiophen-2-ylsulfonylamino)propyl]amino]acetic acid ethyl ester] | > 50 µM |
| COc1ccc(NC=C2C(=O)CCCC2=O)cc1 [2-[[(4-methoxyphenyl)amino]methylidene]cyclohexane-1,3-dione] | 34.1 µM |
| CCc1nc(N)c(C#N)c(-c2cccn2C)c1C [2-amino-6-ethyl-5-methyl-4-(1-methylpyrrol-2-yl)pyridine-3-carbonitrile] | > 50 µM |
| CC(C[N+](C)(C)C)OC(N)=O (configuration not stated) [2-aminocarbonyloxypropyl(trimethyl)azanium;chloride] | > 50 µM |
| Nc1cc(OC(=O)c2ccccc2Br)nn1S(=O)(=O)c1ccccc1 [2-bromobenzoic acid (5-amino-1-besyl-pyrazol-3-yl) ester] | 1.26 µM |
| COc1ccc(S(=O)(=O)n2nc(OC(=O)c3ccccc3Br)cc2N)cc1 [2-bromobenzoic acid [5-amino-1-(4-methoxyphenyl)sulfonyl-3-pyrazolyl] ester] | 0.297 µM |

| Structure (SMILES) | IC50 |
| --- | --- |
| COc1ccc(S(=O)(=O)n2nc(OC(=O)c3cccs3)cc2N)cc1 [2-thiophenecarboxylic acid [5-amino-1-(4-methoxyphenyl)sulfonyl-3-pyrazolyl] ester] | 0.11 µM |
| CCOC(=O)c1[nH]c2ccccc2c1NC(=O)CC [3-(1-oxopropylamino)-1H-indole-2-carboxylic acid ethyl ester] | > 50 µM |
| Brc1cccc(-c2cnc3n2CCCCC3)c1 [3-(3-bromophenyl)-6,7,8,9-tetrahydro-5H-imidaz[1,2-a]azepine;hydrochloride] | > 50 µM |
| O=S(=O)(c1ccc(Cl)cc1)N1CN2CCN(C2)C1 [3-(4-Chloro-benzenesulfonyl)-1,3,5-triaza-bicyclo[3.2.1]octane] | > 50 µM |
| CC(=O)N1CCN(C(=O)c2cccc(S(=O)(=O)Nc3ccc(C)cc3)c2)CC1 [3-(4-acetylpiperazine-1-carbonyl)-N-(4-methylphenyl)benzenesulfonamide] | > 50 µM |
| COc1ccc2[nH]c(C(=O)O)c(CCNC(C)=O)c2c1 [3-[2-(acetylamino)ethyl]-5-methoxy-1H-indole-2-carboxylic acid] | > 50 µM |
| COc1cccc2cc(-c3csc(CCn4nc(C)cc4C)n3)c(=O)oc12 [3-[2-[2-(3,5-dimethyl-1-pyrazolyl)ethyl]-4-thiazolyl]-8-methoxy-1-benzopyran-2-one] | > 50 µM |
| O=C(c1cc2ccccc2oc1=O)N1CCN(c2ccc(N3CCOCC3)nn2)CC1 [3-[4-(6-morpholin-4-ylpyridazin-3-yl)piperazin-1-yl]carbonylchromen-2-one] | > 50 µM |
| CCn1cc(C(=O)Nc2cccc(C(=O)OC)c2)c(=O)c2ccc(C)nc21 [3-[(1-Ethyl-7-methyl-4-oxo-1,4-dihydro-[1,8]naphthyridine-3-carbonyl)-amino]-benzoic acid methyl ester] | > 50 µM |
| CC(C)NCc1c(O)c(Br)cc2oc3c(c12)CCCC3 [3-bromanyl-1-[(propan-2-ylamino)methyl]-6,7,8,9-tetrahydrodibenzofuran-2-ol] | > 50 µM |
| CCOC(=O)N1CCN(C2=CC(=O)OC23CCCCC3)CC1 [4-(2-Oxo-1-oxa-spiro[4.5]dec-3-en-4-yl)-piperazine-1-carboxylic acid ethyl ester] | > 50 µM |
| COc1ccc(N2CCN(C(=O)c3cn(C)c(=O)c4c3c3ccccc3n4C)CC2)cc1 [4-[4-(4-methoxyphenyl)piperazin-1-yl]carbonyl-2,9-dimethyl-pyrido[3,4-b]indol-1-one] | > 50 µM |
| NC(=O)c1ccc(-n2nnnc2SCc2ccc(F)cc2)cc1 [4-[5-[(4-fluorobenzyl)thio]tetrazol-1-yl]benzamide] | > 50 µM |
| CCN(CC)CCNC(=O)c1ccc(N)cc1 [4-amino-N-[2-(diethylamino)ethyl]benzamide;hydrochloride] | > 50 µM |
| CCN(CC(=O)NC(C)C)C(=O)CCNC(=O)c1ccc(Cl)cc1 [4-chloranyl-N-[3-[ethyl-[2-oxidanylidene-2-(propan-2-ylamino)ethyl]amino]-3-oxidanylidene-propyl]benzamide] | > 50 µM |
| CCOC(=O)C(CC(=O)O)N1CCCCC1 (configuration not stated) [4-ethoxy-4-keto-3-piperidino-butyric acid] | > 50 µM |
| COc1cc(C)nc(Oc2ccc(OCCOc3ccc(C)cc3)nn2)n1 [4-methoxy-6-methyl-2-[6-[2-(4-methylphenoxy)ethoxy]pyridazin-3-yl]oxy-pyrimidine] | > 50 µM |
| O=C1NC(=O)C(c2ccccc2)(c2ccccc2)N1 [5,5-DIPHENYLHYDANTOIN SODIUM SALT] | > 50 µM |
| CNC(=O)c1nnc(Cc2ccc(F)cc2)o1 [5-(4-fluorobenzyl)-N-methyl-1,3,4-oxadiazole-2-carboxamide] | > 50 µM |
